Test [1] addresses Activated CDC42 kinase 1 (Homo sapiens) (UniProt Q07912). Description: Inhibition of TNK2 (unknown origin) assessed as remaining activity at 1 uM by Kinome scan method relative to control.
Test [2] concerns the target Casein kinase I isoform epsilon (Homo sapiens) (UniProt P49674). The experiment in a line: Inhibition of CSNK1E (unknown origin) assessed as remaining activity at 1 uM by Kinome scan method relative to control.
The target of test [3] is Serine/threonine-protein kinase MAK (Homo sapiens) (UniProt P20794). Description: Inhibition of MAK (unknown origin) assessed as remaining activity at 1 uM by Kinome scan method relative to control.
The target of test [4] is Calcium/calmodulin-dependent protein kinase type 1G (Homo sapiens) (UniProt Q96NX5). Description: Inhibition of CAMK1G (unknown origin) assessed as remaining activity at 1 uM by Kinome scan method relative to control.
The target in test [5] is Ribosomal protein S6 kinase alpha-5 (Homo sapiens) (UniProt O75582). Description: Inhibition of C-terminal kinase domain RPS6KA5 (unknown origin) assessed as remaining activity at 1 uM by Kinome scan method relative to control.
Chain of Ribosomal protein S6 kinase alpha-5 (Homo sapiens) (O75582 whole entry, looked up, the tested form may be a part): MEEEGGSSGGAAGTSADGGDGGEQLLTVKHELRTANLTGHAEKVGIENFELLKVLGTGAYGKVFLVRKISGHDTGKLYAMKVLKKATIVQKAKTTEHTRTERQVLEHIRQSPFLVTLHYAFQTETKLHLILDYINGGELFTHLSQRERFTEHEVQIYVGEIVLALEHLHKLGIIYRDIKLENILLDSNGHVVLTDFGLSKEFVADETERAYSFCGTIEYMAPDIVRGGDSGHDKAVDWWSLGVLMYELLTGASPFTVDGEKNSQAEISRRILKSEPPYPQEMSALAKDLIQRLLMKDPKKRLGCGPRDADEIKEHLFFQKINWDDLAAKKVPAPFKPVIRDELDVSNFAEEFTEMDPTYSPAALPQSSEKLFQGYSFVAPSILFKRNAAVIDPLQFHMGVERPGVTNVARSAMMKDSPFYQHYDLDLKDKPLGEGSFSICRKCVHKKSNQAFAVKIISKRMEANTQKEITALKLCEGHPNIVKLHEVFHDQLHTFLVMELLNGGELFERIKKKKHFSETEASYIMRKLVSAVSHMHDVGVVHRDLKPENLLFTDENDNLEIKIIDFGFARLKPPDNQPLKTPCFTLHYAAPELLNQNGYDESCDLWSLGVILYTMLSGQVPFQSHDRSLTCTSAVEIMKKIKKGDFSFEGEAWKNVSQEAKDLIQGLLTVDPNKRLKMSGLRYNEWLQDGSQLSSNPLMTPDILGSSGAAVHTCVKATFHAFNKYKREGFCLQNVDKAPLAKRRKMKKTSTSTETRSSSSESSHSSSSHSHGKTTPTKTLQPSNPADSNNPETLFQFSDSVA
The target of test [6] is Dual specificity tyrosine-phosphorylation-regulated kinase 1A (Homo sapiens) (UniProt Q13627). Description: Inhibition of human DYRK1A assessed as residual activity at 1 uM using RBER-CHKtide as substrate in presence of 33P-ATP by ProQinase assay relative to control.
The target in test [7] is Hepatocyte growth factor receptor (Homo sapiens) (UniProt P08581). The experiment in a line: Inhibition of MET (unknown origin) assessed as remaining activity at 1 uM by Kinome scan method relative to control.
The target of test [8] is STE20-like serine/threonine-protein kinase (Homo sapiens) (UniProt Q9H2G2). The experiment in a line: Inhibition of SLK (unknown origin) assessed as remaining activity at 1 uM by Kinome scan method relative to control.
Chain of STE20-like serine/threonine-protein kinase (Homo sapiens) (Q9H2G2 whole entry, looked up): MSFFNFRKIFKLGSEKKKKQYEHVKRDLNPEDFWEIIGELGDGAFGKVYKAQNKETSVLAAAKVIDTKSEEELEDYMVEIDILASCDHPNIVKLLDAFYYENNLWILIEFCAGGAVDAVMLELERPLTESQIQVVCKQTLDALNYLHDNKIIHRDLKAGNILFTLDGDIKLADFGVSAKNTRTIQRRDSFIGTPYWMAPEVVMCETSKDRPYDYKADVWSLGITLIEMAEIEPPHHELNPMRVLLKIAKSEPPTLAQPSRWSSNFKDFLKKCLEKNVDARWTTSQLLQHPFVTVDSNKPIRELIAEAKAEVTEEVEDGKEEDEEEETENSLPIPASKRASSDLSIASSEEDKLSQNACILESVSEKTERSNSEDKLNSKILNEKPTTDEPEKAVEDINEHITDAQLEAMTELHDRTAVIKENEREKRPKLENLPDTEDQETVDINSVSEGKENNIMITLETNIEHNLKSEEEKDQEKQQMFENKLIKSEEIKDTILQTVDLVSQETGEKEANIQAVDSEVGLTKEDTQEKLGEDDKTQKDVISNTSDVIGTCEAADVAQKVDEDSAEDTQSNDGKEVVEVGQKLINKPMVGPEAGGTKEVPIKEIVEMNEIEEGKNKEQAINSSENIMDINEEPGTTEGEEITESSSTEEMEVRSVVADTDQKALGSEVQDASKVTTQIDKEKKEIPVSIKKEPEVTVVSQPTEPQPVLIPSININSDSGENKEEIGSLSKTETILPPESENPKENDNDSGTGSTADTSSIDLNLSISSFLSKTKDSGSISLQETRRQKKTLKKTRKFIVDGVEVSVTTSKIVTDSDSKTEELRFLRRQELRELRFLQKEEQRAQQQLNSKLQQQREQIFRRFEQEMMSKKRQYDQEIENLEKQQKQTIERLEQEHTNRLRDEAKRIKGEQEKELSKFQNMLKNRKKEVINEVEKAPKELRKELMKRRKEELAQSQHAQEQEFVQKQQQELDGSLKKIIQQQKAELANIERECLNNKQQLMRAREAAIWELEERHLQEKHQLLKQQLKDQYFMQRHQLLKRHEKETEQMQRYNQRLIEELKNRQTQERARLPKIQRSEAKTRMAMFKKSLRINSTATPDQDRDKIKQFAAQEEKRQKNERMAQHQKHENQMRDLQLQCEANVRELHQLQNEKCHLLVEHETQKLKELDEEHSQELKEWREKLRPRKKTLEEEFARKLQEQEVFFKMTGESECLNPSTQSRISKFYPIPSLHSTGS
In test [9] the target is Receptor tyrosine-protein kinase erbB-4 (Homo sapiens) (UniProt Q15303). Description: Inhibition of ERBB4 (unknown origin) assessed as remaining activity at 1 uM by Kinome scan method relative to control.
Test [10] addresses Serine/threonine-protein kinase mTOR (Homo sapiens) (UniProt P42345). The experiment in a line: Inhibition of human mTOR assessed as residual activity at 1 uM using casein as substrate in presence of 33P-ATP by ProQinase assay relative to control.
Test [11] concerns the target Proto-oncogene tyrosine-protein kinase Src (Homo sapiens) (UniProt P12931). The experiment in a line: Inhibition of SRC (unknown origin) assessed as remaining activity at 1 uM by Kinome scan method relative to control.
In test [12] the target is Serine/threonine-protein kinase 26 (Homo sapiens) (UniProt Q9P289). Description: Inhibition of human MST4 assessed as residual activity at 1 uM using RB-CTF as substrate in presence of 33P-ATP by ProQinase assay relative to control.
Chain of Serine/threonine-protein kinase 26 (Homo sapiens) (Q9P289 2-416 limits assumed): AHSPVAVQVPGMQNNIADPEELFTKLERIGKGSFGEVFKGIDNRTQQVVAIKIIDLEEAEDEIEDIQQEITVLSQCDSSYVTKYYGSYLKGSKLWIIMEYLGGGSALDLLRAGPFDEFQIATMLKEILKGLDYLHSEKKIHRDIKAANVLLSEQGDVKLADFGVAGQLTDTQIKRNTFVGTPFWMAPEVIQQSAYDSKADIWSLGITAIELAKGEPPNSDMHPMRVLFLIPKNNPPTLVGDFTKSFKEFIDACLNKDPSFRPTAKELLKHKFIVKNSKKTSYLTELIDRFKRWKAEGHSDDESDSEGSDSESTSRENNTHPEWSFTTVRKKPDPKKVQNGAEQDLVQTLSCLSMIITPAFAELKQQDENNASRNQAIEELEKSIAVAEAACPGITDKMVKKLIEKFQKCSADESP
Test [13] addresses T1, cGMP-dependent protein kinase 2 (Homo sapiens) (UniProt Q13237).
T1 sequence (whole entry): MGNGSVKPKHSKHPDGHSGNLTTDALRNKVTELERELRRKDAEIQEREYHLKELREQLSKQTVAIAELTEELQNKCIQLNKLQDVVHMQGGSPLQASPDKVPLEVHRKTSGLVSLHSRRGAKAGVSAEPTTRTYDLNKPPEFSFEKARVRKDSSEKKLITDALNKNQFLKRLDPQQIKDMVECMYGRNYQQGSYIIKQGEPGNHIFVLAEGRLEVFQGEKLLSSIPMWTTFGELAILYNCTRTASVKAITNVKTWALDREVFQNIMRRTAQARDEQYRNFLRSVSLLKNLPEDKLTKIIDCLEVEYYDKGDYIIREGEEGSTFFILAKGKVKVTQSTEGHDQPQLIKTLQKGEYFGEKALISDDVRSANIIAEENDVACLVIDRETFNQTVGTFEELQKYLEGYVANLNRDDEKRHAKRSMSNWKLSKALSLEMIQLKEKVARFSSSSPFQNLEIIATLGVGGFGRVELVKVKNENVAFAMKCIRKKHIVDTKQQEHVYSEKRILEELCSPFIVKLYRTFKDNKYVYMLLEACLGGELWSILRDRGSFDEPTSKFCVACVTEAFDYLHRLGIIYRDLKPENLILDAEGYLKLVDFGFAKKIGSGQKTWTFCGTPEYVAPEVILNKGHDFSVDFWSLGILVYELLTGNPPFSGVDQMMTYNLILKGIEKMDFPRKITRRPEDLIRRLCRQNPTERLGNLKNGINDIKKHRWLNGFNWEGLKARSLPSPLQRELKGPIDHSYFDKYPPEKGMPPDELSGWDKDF
Description: Inhibition of human PRKG2 assessed as residual activity at 1 uM using RBER-GSK3(14-27) as substrate in presence of 33P-ATP by ProQinase assay relative to control.

Test [14] can be described thus: Anti-inflammatory activity against human derived medium respond PBMC cells assessed as inhibition in stimulated IL-1beta cytokine release incubated for 2 hrs in the presence of LPS/SEB/aCD28 by Luminex based sandwich immunoassay. It is filed as functional, cell-based.
The target in test [15] is CDK4/Cyclin D3 (Homo sapiens) (UniProt P11802+P30281). Description: Inhibition of human CDK4/CycD3 assessed as residual activity at 1 uM using RBER-CHKtide as substrate in presence of 33P-ATP by ProQinase assay relative to control. It is filed as protein-complex assay.
Test [16] concerns the target LIM domain kinase 2 (Homo sapiens) (UniProt P53671). The experiment in a line: Inhibition of human LIMK2 assessed as residual activity at 1 uM using CFL1 as substrate in presence of 33P-ATP by ProQinase assay relative to control.
The target of test [17] is Tyrosine-protein kinase FRK (Homo sapiens) (UniProt P42685). The experiment in a line: Inhibition of human FRK assessed as residual activity at 1 uM using PolyEY as substrate in presence of 33P-ATP by ProQinase assay relative to control.
Chain of Tyrosine-protein kinase FRK (Homo sapiens) (P42685 whole entry): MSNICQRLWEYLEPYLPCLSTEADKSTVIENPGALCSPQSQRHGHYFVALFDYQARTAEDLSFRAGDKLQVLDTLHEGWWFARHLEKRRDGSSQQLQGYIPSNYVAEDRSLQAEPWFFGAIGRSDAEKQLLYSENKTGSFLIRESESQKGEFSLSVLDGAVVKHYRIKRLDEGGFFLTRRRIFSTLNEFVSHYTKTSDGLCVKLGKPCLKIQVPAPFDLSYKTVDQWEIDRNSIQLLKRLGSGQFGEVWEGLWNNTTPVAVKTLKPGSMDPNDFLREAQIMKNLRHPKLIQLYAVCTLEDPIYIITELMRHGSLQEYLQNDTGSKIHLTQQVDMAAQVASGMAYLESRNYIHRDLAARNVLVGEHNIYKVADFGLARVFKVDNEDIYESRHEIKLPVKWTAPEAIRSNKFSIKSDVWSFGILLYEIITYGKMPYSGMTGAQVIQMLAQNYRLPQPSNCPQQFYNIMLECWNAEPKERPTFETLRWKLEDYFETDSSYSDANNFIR
Test [18] addresses ALK tyrosine kinase receptor (Homo sapiens) (UniProt Q9UM73). The experiment in a line: Inhibition of human ALK assessed as residual activity at 1 uM using PolyEY as substrate in presence of 33P-ATP by ProQinase assay relative to control.
In test [19] the target is Serine/threonine-protein kinase PAK 1 (Homo sapiens) (UniProt Q13153). The experiment in a line: Inhibition of PAK1 (unknown origin) assessed as remaining activity at 1 uM by Kinome scan method relative to control.
Test [20] deals with Receptor-type tyrosine-protein kinase FLT3 (Homo sapiens), P36888 [D835Y]. Description: Inhibition of human […] mutant assessed as residual activity at 1 uM using Poly(Ala,Glu,Lys,Tyr)6:2:5:1 as substrate in presence of 33P-ATP by ProQinase assay relative to control.
Test [21] has as its target Serine/threonine-protein kinase PLK2 (Homo sapiens) (UniProt Q9NYY3). Description: Inhibition of human SNK assessed as residual activity at 1 uM using RBER-GSK3(14-27) as substrate in presence of 33P-ATP by ProQinase assay relative to control.
Test [22] addresses Serine/threonine-protein kinase pim-3 (Homo sapiens) (UniProt Q86V86). The experiment in a line: Inhibition of human PIM3 assessed as residual activity at 1 uM using RBER-GSK3(14-27) as substrate in presence of 33P-ATP by ProQinase assay relative to control.

Chain of Proto-oncogene tyrosine-protein kinase Src (Homo sapiens) (P12931 2-536 limits assumed): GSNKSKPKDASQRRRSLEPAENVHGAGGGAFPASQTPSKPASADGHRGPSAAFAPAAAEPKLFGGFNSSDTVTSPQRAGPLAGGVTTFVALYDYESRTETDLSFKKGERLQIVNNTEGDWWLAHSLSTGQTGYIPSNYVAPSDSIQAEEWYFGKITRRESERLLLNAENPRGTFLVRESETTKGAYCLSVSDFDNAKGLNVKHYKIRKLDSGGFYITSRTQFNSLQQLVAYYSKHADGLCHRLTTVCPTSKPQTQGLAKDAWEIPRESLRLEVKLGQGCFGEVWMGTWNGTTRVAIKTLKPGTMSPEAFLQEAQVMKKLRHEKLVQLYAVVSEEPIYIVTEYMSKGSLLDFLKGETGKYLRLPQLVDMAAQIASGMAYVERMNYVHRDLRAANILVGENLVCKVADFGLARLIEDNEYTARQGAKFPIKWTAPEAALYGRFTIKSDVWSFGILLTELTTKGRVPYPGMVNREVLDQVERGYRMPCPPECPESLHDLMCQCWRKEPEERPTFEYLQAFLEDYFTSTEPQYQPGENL
Chain of Activated CDC42 kinase 1 (Homo sapiens) (Q07912 whole entry, looked up, canonical isoform): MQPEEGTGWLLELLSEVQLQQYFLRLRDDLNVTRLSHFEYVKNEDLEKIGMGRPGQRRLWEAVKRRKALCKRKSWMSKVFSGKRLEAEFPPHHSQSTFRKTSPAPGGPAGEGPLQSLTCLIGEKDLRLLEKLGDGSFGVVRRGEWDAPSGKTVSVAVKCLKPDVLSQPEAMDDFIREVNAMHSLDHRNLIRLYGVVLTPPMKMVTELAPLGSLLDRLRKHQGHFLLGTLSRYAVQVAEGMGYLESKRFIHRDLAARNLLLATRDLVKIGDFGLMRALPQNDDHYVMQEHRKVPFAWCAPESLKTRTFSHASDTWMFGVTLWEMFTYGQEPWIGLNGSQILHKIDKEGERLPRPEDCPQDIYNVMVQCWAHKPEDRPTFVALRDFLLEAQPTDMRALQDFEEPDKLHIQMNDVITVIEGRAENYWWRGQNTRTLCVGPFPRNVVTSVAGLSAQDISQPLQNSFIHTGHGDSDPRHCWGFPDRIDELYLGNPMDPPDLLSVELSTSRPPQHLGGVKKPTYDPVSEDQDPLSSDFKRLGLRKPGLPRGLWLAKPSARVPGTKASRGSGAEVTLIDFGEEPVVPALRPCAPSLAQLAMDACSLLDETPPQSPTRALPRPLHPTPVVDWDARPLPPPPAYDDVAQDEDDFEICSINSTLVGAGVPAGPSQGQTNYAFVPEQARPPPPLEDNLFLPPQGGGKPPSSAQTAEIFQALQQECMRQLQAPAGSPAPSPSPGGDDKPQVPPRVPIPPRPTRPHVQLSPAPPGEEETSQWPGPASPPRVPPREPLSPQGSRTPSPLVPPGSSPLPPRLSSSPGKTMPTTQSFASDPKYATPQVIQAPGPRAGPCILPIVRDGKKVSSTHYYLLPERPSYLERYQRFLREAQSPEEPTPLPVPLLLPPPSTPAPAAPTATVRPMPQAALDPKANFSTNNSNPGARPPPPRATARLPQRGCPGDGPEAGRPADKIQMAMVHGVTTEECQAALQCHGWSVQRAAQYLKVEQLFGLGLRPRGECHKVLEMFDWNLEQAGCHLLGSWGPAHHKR
Chain of Casein kinase I isoform epsilon (Homo sapiens) (P49674 whole entry, looked up, canonical isoform): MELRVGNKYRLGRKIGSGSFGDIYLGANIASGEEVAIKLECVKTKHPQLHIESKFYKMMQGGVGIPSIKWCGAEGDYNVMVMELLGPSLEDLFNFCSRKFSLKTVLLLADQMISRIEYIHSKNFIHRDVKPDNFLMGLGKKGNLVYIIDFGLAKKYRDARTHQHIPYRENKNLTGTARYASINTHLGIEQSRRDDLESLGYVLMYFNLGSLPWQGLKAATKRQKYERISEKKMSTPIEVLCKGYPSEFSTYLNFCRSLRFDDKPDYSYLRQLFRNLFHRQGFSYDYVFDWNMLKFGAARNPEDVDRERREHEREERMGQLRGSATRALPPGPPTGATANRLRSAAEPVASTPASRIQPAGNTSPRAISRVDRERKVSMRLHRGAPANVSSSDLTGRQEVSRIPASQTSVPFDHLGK

Turning to `O=C1c2ccc(Nc3ccc(F)cc3F)cc2CCc2ccc(OC[C@H](O)CO)cc21` [Skepinone-L], the Activity in test [1] came to 100%; in test [2] it was 100%; in [3] it was 84%; in test [4], 96%; in [5], 92%; in test [6], 96%. Further, the Activity worked out at 100% in test [7]; 100% in test [8]; 97% in [9]; 97% in test [10]; 100% in test [11]; 106% in test [12]. The Activity in test [13] stood at 94%; in test [15], 98%; in [16], 100%; in [17], 111%; in test [18], 104%; in [19] it was 100%. For the same molecule, the Activity was determined as 101% in [20], 103% in [21] and 78% in test [22]. Also, the IC50 in test [14] amounted to 1590 nM.

The record behind these values is ChEMBL document CHEMBL5696441 (Nat Chem Biol, 2011).
